In patent US8772480B2, “Inhibitors of PI3 kinase and/or mTOR” (priority 2009, dated 2014):

Tests used:
PI3Kα = PI3Kα (Homo sapiens (Human), UniProt P42336); conditions: read-out: PI3Kα AlphaScreen ® Ki
[1] = target: human mutant B-raf (HuBraf V600E) (Homo sapiens (Human), UniProt P15056, V600E); conditions: at 10 μM compound concentration; POC = 100 − percent inhibition
[2] = tested on: phosphorylation of Akt at Serine 473 in U87 MG cells; experiment: cells; conditions: Homo sapiens, U-87 MG, 2 h, read-out: U87Cell IC50, pAkt (Ser 473), U87 MG cells, two hours with compound

Sequence of PI3Kα (P42336 whole entry): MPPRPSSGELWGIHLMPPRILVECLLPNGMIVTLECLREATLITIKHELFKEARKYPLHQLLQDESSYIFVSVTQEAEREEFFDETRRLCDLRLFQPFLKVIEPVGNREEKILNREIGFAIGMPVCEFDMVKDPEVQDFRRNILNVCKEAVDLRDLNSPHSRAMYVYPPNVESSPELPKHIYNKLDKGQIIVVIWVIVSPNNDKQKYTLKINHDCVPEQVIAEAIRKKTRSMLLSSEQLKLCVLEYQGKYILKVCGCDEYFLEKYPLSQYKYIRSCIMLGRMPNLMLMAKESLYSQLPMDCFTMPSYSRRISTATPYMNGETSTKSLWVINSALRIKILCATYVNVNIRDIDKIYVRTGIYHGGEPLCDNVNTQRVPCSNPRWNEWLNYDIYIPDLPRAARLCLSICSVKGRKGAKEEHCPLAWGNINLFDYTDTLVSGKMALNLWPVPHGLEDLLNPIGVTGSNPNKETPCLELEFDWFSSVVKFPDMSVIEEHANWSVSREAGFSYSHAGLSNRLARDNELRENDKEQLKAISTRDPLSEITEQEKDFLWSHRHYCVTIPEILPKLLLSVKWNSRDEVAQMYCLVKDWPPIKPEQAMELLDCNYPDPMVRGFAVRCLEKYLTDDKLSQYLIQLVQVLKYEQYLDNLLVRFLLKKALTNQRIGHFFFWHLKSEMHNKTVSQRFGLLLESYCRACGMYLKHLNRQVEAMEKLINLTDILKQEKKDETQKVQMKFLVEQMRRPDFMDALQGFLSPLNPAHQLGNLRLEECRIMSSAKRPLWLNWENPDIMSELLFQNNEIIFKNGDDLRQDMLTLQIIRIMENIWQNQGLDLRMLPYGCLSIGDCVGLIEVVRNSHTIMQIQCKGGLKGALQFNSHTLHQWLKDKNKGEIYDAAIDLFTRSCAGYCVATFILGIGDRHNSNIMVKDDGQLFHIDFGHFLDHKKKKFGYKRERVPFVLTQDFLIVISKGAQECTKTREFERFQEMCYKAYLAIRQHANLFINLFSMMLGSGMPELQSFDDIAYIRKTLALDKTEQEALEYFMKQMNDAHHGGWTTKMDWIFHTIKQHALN
Sequence of PI3Kα (P27986 whole entry partner): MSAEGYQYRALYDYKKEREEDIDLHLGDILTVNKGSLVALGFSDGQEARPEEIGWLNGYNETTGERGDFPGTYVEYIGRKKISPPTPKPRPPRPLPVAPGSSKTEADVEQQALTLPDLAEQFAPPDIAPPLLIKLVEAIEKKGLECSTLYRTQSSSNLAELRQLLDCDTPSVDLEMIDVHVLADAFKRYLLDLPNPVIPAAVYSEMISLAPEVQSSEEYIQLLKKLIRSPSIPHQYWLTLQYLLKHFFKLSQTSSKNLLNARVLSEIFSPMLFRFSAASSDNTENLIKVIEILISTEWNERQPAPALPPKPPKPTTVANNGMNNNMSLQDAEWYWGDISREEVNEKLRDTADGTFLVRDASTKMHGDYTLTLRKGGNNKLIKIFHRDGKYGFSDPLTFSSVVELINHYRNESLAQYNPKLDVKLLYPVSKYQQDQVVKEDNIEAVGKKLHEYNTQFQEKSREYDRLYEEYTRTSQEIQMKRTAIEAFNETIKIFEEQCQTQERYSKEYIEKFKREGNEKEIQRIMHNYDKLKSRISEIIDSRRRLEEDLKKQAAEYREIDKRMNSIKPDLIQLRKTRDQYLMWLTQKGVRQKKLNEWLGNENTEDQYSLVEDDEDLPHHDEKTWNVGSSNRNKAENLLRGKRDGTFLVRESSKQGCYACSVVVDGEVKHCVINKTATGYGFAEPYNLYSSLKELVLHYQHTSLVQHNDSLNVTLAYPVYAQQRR
Sequence of human mutant B-raf (HuBraf V600E) (P15056 whole entry V600E): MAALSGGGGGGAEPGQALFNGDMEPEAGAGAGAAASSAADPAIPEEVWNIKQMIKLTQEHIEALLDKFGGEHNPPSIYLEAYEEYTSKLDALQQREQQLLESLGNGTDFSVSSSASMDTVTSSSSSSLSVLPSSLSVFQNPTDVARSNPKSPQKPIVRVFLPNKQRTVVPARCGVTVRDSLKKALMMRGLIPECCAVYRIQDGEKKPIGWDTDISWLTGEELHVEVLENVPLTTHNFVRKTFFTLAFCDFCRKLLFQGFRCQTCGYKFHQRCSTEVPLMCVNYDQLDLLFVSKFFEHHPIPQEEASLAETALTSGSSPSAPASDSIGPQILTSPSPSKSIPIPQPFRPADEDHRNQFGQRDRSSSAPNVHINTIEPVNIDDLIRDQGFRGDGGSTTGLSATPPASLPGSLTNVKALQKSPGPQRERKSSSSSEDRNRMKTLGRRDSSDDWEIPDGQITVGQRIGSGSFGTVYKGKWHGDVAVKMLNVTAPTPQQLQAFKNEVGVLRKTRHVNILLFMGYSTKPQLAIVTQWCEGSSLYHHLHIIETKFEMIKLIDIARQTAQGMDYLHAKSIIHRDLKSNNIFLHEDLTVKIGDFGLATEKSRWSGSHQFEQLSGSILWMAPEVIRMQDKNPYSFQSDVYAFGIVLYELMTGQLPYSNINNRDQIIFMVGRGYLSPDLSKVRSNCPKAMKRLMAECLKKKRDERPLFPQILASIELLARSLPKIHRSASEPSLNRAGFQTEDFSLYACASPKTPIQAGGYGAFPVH

Row | SMILES | Ki (PI3Kα) | Mutant B-raf HTRF Assay POC Mean n = 2 [1] | IC50 [2]
1 | CC(=O)Nc1ccc(Nc2ncccc2-c2ncnc3[nH]cnc23)cn1 [Example 16, N-(5-(3-(9H-Purin-6-yl)Pyridin-2-Ylamino)Pyridin-2-yl)Acetamide] | > 1500 nM | 42% of Control (POC) | –
2 | Nc1ccc(Nc2ncccc2-c2ncnc3[nH]cnc23)cn1 [Example 17, N3-(3-(9H-Purin-6-yl)Pyridin-2-yl)Pyridine-3,6-Diamine] | > 1500 nM | 38% of Control (POC) | –
3 | Cc1nc(N)nc(-c2cccnc2Nc2cccc3[nH]ncc23)n1 [Example 24, N-(3-(4-Amino-6-Methyl-1,3,5-Triazin-2-yl)Pyridin-2-yl)-1H-Indazol-4-Amine] | – | 94% of Control (POC) | –
4 | Cc1nc(N)cc(-c2cccnc2Nc2cccc(O)c2)n1 [Example 26, 3-(3-(6-Amino-2-Methylpyrimidin-4-yl)Pyridin-2-Ylamino)Phenol] | 24 nM | 84% of Control (POC) | –
5 | Cc1cnc(Nc2cccnc2)c(-c2nc(C)nc(N)n2)c1 [Example 32, Methyl-6-(5-Methyl-2-(Pyridin-3-Ylamino)Pyridin-3-yl)-1,3,5-Triazin-2-Amine] | 191 nM | 107% of Control (POC) | 587 nM
6 | COc1ccc(Nc2ncc(CN3CCN(S(C)(=O)=O)CC3)cc2-c2nc(C)nc(N)n2)cn1 [Example 35, 4-(2-(6-methoxypyridin-3-ylamino)-5-((4-(methylsulfonyl)piperazin-1-yl)methyl)pyridin-3-yl)-6-methyl-1,3,5-triazin-2-amine] | – | 98% of Control (POC) | –
7 | COc1ccc(Nc2ncc(CN3CCOCC3)cc2-c2nc(C)nc(N)n2)cn1 [Example 44, 4-(2-(6-methoxypyridin-3-ylamino)-5-(morpholinomethyl)pyridin-3-yl)-6-methyl-1,3,5-triazin-2-amine] | – | 94% of Control (POC) | –
8 | Cc1nc(N)nc(-c2cccnc2Nc2ccc(N)nc2)n1 [Example 50, N5-(3-(4-Amino-6-Methyl-1,3,5-Triazin-2-yl)Pyridin-2-yl)Pyridine-2,5-Diamine] | 1330 nM | 87% of Control (POC) | 3070 nM
9 | Cc1nc(-c2cccnc2Nc2cccc3[nH]ncc23)c2cn[nH]c2n1 [Example 55, N-(3-(6-methyl-1H-pyrazolo[3,4-d]pyrimidin-4-yl)pyridin-2-yl)-1H-indazol-4-amine] | 1410 nM | 103% of Control (POC) | –
10 | Cc1nc(-c2cccnc2Nc2cccc3[nH]ccc23)c2nc[nH]c2n1 [Example 56, N-(3-(2-methyl-9H-purin-6-yl)pyridin-2-yl)-1H-indol-4-amine] | – | 58% of Control (POC) | –
11 | Cc1nc(-c2cc(C(F)(F)F)cnc2Nc2cccc3[nH]ncc23)c2nc[nH]c2n1 [Example 65, N-(3-(2-Methyl-9H-Purin-6-yl)-5-(Trifluoromethyl)Pyridine-2-yl)-1H-Indazol-4-Amine] | 119 nM | 85% of Control (POC) | –
12 | COc1ccc(COCc2cnc(Nc3cccc4[nH]ccc34)c(-c3nc(C)nc4[nH]cnc34)c2)cc1 [Example 71, N-(5-((4-methoxybenzyloxy)methyl)-3-(2-methyl-9H-purin-6-yl)pyridin-2-yl)-1H-indol-4-amine] | 402 nM | 75% of Control (POC) | 1190 nM
13 | Cc1nc(N)cc(-c2cnccc2Nc2cccc3[nH]ccc23)n1 [Example 109, N-(3-(6-amino-2-methylpyrimidin-4-yl)pyridin-4-yl)-1H-indol-4-amine] | – | 35% of Control (POC) | 821 nM
14 | COCCOc1cnc(Nc2cnc(C)c(NS(C)(=O)=O)c2)c(-c2nc(C)nc(N)n2)c1 [Example 376, N-(5-(3-(4-Amino-6-Methyl-1,3,5-Triazin-2-yl)-5-(2-Methoxyethoxy)Pyridin-2-Ylamino)-2-Methylpyridin-3-yl)Methanesulfonamide] | 71 nM | – | 267 nM
15 | Cc1nc(N)nc(-c2cccnc2Nc2cnc(C)c(NS(C)(=O)=O)c2)n1 [Example 377, N-(5-(3-(4-Amino-6-Methyl-1,3,5-Triazin-2-yl)Pyridin-2-Ylamino)-2-Methylpyridin-3-yl)Methanesulfonamide] | 279 nM | – | 364 nM
16 | C=Cc1cnc(Nc2cnc(Cl)c(NS(C)(=O)=O)c2)c(-c2cc(N)nc(C)n2)c1 [Example 380, N-(5-(3-(6-Amino-2-Methylpyrimidin-4-yl)-5-Vinylpyridin-2-Ylamino)-2-Chloropyridin-3-yl)Methanesulfonamide] | 59 nM | – | 16 nM
17 | COc1ncc(Nc2ncc(CN3CCN4C(CCS4(=O)=O)C3)cc2-c2nc(C)nc(N)n2)cc1F (stereo not drawn) [Example 383, 4-(5-((1,1-Dioxidohexahydro-5H-Isothiazolo[2,3-A]Pyrazin-5-yl)Methyl)-2-((5-Fluoro-6-Methoxy-3-Pyridinyl)Amino)-3-Pyridinyl)-6-Methyl-1,3,5-Triazin-2-Amine] | 7 nM | – | 8 nM

Now from value to compound:

Row | Ki (PI3Kα) | Mutant B-raf HTRF Assay POC Mean n = 2 [1] | IC50 [2] | SMILES
18 | – | 95% of Control (POC) | – | COc1ccc(Nc2ncccc2-c2nc(C)nc(N)n2)cn1 [Example 25, 4-(2-(6-Methoxypyridin-3-Ylamino)Pyridin-3-yl)-6-Methyl-1,3,5-Triazin-2-Amine]
19 | – | 97% of Control (POC) | – | COc1ccc(Nc2ncc(C)cc2-c2nc(C)nc(N)n2)cn1 [Example 31, 4-(2-(6-Methoxypyridin-3-Ylamino)-5-Methylpyridin-3-yl)-6-Methyl-1,3,5-Triazin-2-Amine]
20 | – | 94% of Control (POC) | – | COc1cnc(Nc2ccc(OC)nc2)c(-c2nc(C)nc(N)n2)c1 [Example 33, 4-(5-Methoxy-2-(6-Methoxypyridin-3-Ylamino)Pyridin-3-yl)-6-Methyl-1,3,5-Triazin-2-Amine]
21 | – | 96% of Control (POC) | – | COc1ccc(Nc2ncc(CN3CCNCC3)cc2-c2nc(C)nc(N)n2)cn1 [Example 41, 4-(2-(6-methoxypyridin-3-ylamino)-5-(piperazin-1-ylmethyl)pyridin-3-yl)-6-methyl-1,3,5-triazin-2-amine]
22 | 720 nM | 66% of Control (POC) | 3630 nM | Cc1nc(-c2cc(Cl)cnc2Nc2cccc3[nH]ncc23)c2nc[nH]c2n1 [Example 61, N-(5-Chloro-3-(2-methyl-9H-purin-6-yl)pyridin-2-yl)-1H-indazol-4-amine]
23 | 50 nM | 107% of Control (POC) | > 10000 nM | Cc1nc(-c2cc(Br)cnc2Nc2cccc3[nH]ncc23)c2nc[nH]c2n1 [Example 64, N-(5-bromo-3-(2-methyl-9H-purin-6-yl)pyridin-2-yl)-1H-indazol-4-amine]
24 | 62 nM | 103% of Control (POC) | 173 nM | COc1ncc(Nc2ncccc2-c2nc(C)nc3[nH]cnc23)cn1 [Example 66, 2-Methoxy-N-(3-(2-Methyl-9H-Purin-6-yl)Pyridin-2-yl)Pyrimidin-5-Amine]
25 | – | 108% of Control (POC) | 554 nM | C=Cc1cnc(Nc2ccc(OC)nc2)c(-c2nc(C)nc3[nH]cnc23)c1 [Example 73, N-(6-methoxypyridin-3-yl)-3-(2-methyl-9H-purin-6-yl)-5-vinylpyridin-2-amine]
